We go through two molecules from BindingDB's records for doi:10.1038/nsb921 (Mahidol University, 2003).

Holding throughout (experiment): Antimalarial Testing In Vitro (IC50) and Measurement of Inhibition Constant (Ki)
Holding throughout (conditions): pH 7; 25 °C

The target of experiment [1] is Bifunctional dihydrofolate reductase-thymidylate synthase (Plasmodium falciparum (isolate K1 / Thailand), UniProt Q8I1R6). How it is done:
(§1) The activity of pfDHFR-TS was determined spectrophotometrically using a UV-Vis spectrophotometer.

Experiment [2] has as its target Bifunctional dihydrofolate reductase-thymidylate synthase [N51I,C59R,S108N,I164L] (Plasmodium falciparum (isolate K1 / Thailand), UniProt Q8I1R6, C59R/I164L/N51I/S108N). How it is done: as §1
Experiment [3] has as its target Bifunctional dihydrofolate reductase-thymidylate synthase (Plasmodium falciparum (isolate K1 / Thailand), UniProt P13922). How it is done:
as §1

A value given as a limit tells only on which side of the number the result lay.

Sequence of Bifunctional dihydrofolate reductase-thymidylate synthase (Plasmodium falciparum (isolate K1 / Thailand), UniProt Q8I1R6) (Q8I1R6 whole entry): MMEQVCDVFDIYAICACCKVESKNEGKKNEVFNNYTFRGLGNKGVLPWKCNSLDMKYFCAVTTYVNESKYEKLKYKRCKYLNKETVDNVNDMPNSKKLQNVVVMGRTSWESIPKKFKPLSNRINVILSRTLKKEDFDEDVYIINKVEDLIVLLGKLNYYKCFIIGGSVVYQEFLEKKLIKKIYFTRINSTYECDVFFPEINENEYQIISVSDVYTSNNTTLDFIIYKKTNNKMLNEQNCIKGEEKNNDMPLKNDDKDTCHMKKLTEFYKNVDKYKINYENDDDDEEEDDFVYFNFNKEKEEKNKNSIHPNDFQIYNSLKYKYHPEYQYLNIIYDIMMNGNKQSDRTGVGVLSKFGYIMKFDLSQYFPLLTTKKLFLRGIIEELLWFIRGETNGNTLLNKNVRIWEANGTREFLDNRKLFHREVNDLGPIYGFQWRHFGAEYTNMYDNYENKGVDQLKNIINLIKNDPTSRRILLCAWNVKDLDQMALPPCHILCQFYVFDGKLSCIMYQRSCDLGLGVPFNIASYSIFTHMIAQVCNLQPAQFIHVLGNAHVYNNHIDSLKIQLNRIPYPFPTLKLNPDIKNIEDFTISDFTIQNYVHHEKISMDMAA
Sequence of Bifunctional dihydrofolate reductase-thymidylate synthase (Plasmodium falciparum (isolate K1 / Thailand), UniProt P13922) (P13922 whole entry): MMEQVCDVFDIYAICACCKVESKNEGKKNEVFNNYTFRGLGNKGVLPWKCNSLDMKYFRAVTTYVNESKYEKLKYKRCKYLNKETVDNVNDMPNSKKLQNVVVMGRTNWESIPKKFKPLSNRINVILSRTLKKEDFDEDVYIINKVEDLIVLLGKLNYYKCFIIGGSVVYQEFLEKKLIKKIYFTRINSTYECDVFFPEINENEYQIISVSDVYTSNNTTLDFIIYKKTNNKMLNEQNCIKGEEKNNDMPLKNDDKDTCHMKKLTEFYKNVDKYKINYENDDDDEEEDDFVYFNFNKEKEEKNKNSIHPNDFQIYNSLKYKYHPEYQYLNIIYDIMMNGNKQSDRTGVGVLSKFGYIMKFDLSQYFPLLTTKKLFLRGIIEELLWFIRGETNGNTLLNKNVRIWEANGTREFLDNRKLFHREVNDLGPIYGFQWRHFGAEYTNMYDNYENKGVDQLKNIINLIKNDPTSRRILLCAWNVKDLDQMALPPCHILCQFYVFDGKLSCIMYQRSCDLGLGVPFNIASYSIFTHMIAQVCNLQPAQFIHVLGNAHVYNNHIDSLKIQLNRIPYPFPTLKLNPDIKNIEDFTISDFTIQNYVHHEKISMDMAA
Sequence of Bifunctional dihydrofolate reductase-thymidylate synthase [N51I,C59R,S108N,I164L] (Q8I1R6 whole entry N51I/C59R/S108N/I164L): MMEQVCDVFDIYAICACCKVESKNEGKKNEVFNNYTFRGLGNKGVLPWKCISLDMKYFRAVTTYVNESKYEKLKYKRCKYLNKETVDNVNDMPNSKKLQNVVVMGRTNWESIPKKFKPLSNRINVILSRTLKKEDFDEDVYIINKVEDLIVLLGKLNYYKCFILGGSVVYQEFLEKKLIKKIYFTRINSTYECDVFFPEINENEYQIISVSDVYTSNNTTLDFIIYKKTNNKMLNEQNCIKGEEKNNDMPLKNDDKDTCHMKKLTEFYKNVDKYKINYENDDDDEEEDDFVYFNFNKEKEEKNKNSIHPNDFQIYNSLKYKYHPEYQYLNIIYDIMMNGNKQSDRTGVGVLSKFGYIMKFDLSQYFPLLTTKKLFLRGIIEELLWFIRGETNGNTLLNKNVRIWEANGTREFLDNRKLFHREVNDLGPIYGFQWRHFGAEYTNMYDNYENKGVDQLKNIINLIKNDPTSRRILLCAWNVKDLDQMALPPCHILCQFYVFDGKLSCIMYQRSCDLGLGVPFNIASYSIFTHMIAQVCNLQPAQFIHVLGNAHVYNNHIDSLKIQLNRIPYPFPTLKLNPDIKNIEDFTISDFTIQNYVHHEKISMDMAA

Regarding `CC1(C)N=C(N)N=C(N)N1OCCCOc1cc(Cl)c(Cl)cc1Cl` [6,6-dimethyl-1-[3-(2,4,5-trichlorophenoxy)propoxy]-1,6-dihydro-1,3,5-triazine-2,4-diamine], the results for the 50% inhibitory concentration (IC50) in experiment [1], in experiment [2] and in experiment [3] were 0.57 nM, 18 nM and 2.3 nM, respectively. Also, the Ki (usually a dissociation constant, usually derived from enzyme kinetics or from competition with a known ligand) is 0.011 nM in experiment [1], 0.037 nM in experiment [2] and 0.02 nM in experiment [3].

As to `CC1(C)N=C(N)N=C(N)N1c1ccc(Cl)cc1`, the IC50 (usually the midpoint of a concentration-inhibition curve) was 37 nM in experiment [1], above 100000 nM in experiment [2] and 2400 nM in experiment [3]. The Ki in experiment [1] was 0.3 nM; in experiment [2] it was 254 nM; in experiment [3], 6.2 nM.
